Data taken from ChEMBL document CHEMBL1132510, “[35S]S-[5-(4-benzoylphenyl)pentyl]glutathione: a versatile radioligand targeting GS-X pumps with the ability of photoaffinity labeling” (Bioorg Med Chem Lett, 1999).

Columns and labels:
HL-60 [1] = experiment: Compound was evaluated for the competitive inhibition of the MRP1/GS-X pump mediated transport of LTC4 in the cisplatin-resistant human leukemia HL-60 (HL-60/R-CP) cells; format: functional, cell-based
HL-60 [2] = experiment: Inhibitory activity against MRP1/GS-X pump mediated transport of delta7-PGA1 methyl ester glutathione conjugate in the cisplatin-resistant human leukemia HL-60 (HL-60/R-CP) cells; format: functional, cell-based

IC50 (HL-60 [1]): 400 nM
IC50 (HL-60 [2]): 520 nM
Structure (SMILES): N[C@@H](CCC(=O)N[C@@H](CSCCCCCc1ccc(C(=O)c2ccccc2)cc1)C(=O)NCC(=O)O)C(=O)O
